Test results from article PMC9913425, “Pentacyclic Triterpenoids-Based Ionic Compounds: Synthesis, Study of Structure–Antitumor Activity Relationship, Effects on Mitochondria and Activation of Signaling Pathways of Proliferation, Genome Reparation and Early Apoptosis” (Cancers, 2023).

How the values were obtained:
[1] = tested on: mitochondria of Jurkat tumor cells; test: Mitochondrial damage (MitoSense Red staining); type: cell-based; conditions: compound at IC50 concentration, incubation 2 h
HL60 = test: In vitro cytotoxicity, IC50 by flow cytometry (Guava ViaCount); type: cell-based, human
Procedure: (§1) Human cancer cell line HeLa, HL60, A2780 was obtained from the HPA Culture Collections (Salisbury, UK). Cells (Jurkat, K562, U937, Hek293, Fibroblasts) were purchased from Russian Cell Culture Collection (Institute of Cytology of the Russian Academy of Sciences, […], Russia) and cultured according to standard protocols and sterile technique. […] Cells were maintained in RPMI 1640 (Jurkat, K562, U937, HL60) (Gibco, Billings, MT, USA) supplemented with […], 10% FBS (Sigma) and 100 units/mL penicillin–streptomycin (Sigma). All types of cells were grown in an atmosphere of 5% CO2 at 37 °C. The cells were subcultured at 2–3 days intervals. Cells were then seeded in 24-well plates at 5 × 10^4 cells per well and incubated overnight. Jurkat, K562, U937, HL60 cells were subcultured at 2-day intervals with a seeding density of 1 × 10^5 cells per 24-well plates in RPMI with 10% FBS.
(§2) The antitumor activity of the synthesized ionic compounds was initially assessed in vitro on Jurkat, K562, U937, HL60, HEK293, A2780 cell lines, including the determination of IC50 by flow cytometry involving Guava ViaCount (Millipore) reagent kits.

A2780 = test: as above; type: cell-based, human
Procedure: as §1, §2

Jurkat = test: as above; type: cell-based; conditions: Jurkat cells
Procedure: as §1, §2

HEK293 = test: as above; type: cell-based; conditions: conditionally normal
Procedure: as §1, §2

U937 = test: as above; type: cell-based
Procedure: as §1, §2

K562 = test: as above; type: cell-based
Procedure: as §1, §2

Jurkat cells = test: Apoptosis/necrosis induction (Annexin V Alexa Fluor488, 7AAD staining); type: cell-based; conditions: compound at IC50 concentration, incubation 2 h
Text: Multiparametric evaluation of marker molecules, along with the detection of damage to the mitochondrial membrane, makes it possible to clearly determine the type of cell death. The method of cell staining with three different dyes (Annexin V Alexa Fluor488, 7AAD and MitoSense Red) provides simultaneous specification of various aspects of the state of the cell membrane, the state of DNA and the viability of mitochondria; together, it is a reliable sign of intrinsic and mitochondrial apoptosis pathway. Normal cells with intact mitochondrial membranes have high MitoSense Red fluorescence, while cells with decoupled oxidation and phosphorylation have much lower fluorescence. […]
Figure 1 The ratio of the level of mito-damage and the level of apoptosis in Jurkat cells of ionic compounds based on ursolic, oleanolic and betulinic acids.

[2] = Homo sapiens, HL-60, HL60 cells
[3] = Homo sapiens, A2780, A2780 cells
[4] = Homo sapiens, HEK293, HEK293 cells
[5] = Homo sapiens, U-937, U937 cells

| Compound | Mito-Damage (%) [1] [%] | IC50 (HL60; HL60 cells) [nM] | IC50 (A2780; A2780 cells) [nM] | IC50 (Jurkat) [nM] | IC50 (HEK293; HEK293 cells) [nM] | IC50 (U937; U937 cells) [nM] | IC50 (K562; K562 cells) [nM] | Apoptosis (%) Early (Jurkat cells) [%] | Apoptosis (%) Late (Jurkat cells) [%] | Apoptosis (%) Necrosis (Jurkat cells) [%] | IC50 (HL60; [2]) [nM] | IC50 (A2780; [3]) [nM] | IC50 (Jurkat; Homo sapiens, Jurkat) [nM] | IC50 (HEK293; [4]) [nM] | IC50 (U937; [5]) [nM] | IC50 (K562; Homo sapiens, K562, K562 cells) [nM] |
| --- | --- | --- | --- | --- | --- | --- | --- | --- | --- | --- | --- | --- | --- | --- | --- | --- |
| 1-Benzyl-3-methylimidazolium (3β)-3-hydroxyolup-20(29)-en28-oylate [17d] | 9.69 | 19 ± 2 | 87 ± 9 | 16 ± 1 | 189 ± 16 | 40 ± 2 | 44 ± 2 | 4.82 | 1.44 | 2.11 |  |  |  |  |  |  |
| 1-Benzyl-3-methylimidazolium (3β)-3-hydroxyours-12-en-28-oylate [16d] |  | 5 ± 1 | 27 ± 2 | 11 ± 1 | 56 ± 4 | 11 ± 1 | 12 ± 1 |  |  |  |  |  |  |  |  |  |
| 1-Butyl-3-methylimidazolium (3β)-3-hydroxyolean-12-en-28-oylate [15b] |  | 17 ± 2 | 79 ± 7 | 19 ± 1 | 167 ± 16 | 38 ± 2 | 41 ± 2 |  |  |  |  |  |  |  |  |  |
| 1-Butyl-3-methylimidazolium (3β)-3-hydroxyolup-20(29)-en28-oylate [17b] | 17.39 | 15 ± 1 | 74 ± 6 | 14 ± 1 | 159 ± 14 | 32 ± 3 | 39 ± 3 | 6.45 | 3.38 | 1.92 |  |  |  |  |  |  |
| 1-Butyl-3-methylimidazolium (3β)-3-hydroxyours-12-en-28-oylate [16b] |  | 89 ± 8 | 396 ± 35 | 97 ± 6 | 935 ± 94 | 299 ± 14 | 336 ± 16 |  |  |  |  |  |  |  |  |  |
| 1-Hexyl-3-methylimidazolium (3β)-3-hydroxyolean-12-en-28-oylate [15c] |  | 39 ± 4 | 157 ± 18 | 43 ± 2 | 392 ± 38 | 69 ± 3 | 80 ± 4 |  |  |  |  |  |  |  |  |  |
| 1-Hexyl-3-methylimidazolium (3β)-3-hydroxyolean-12-en-28-oylate [15d] |  | 69 ± 7 | 231 ± 22 | 107 ± 6 | 581 ± 47 | 143 ± 7 | 159 ± 8 |  |  |  |  |  |  |  |  |  |
| 1-Hexyl-3-methylimidazolium (3β)-3-hydroxyolup-20(29)-en28-oylate [17c] | 8.71 | 26 ± 3 | 113 ± 10 | 29 ± 2 | 293 ± 31 | 54 ± 3 | 56 ± 3 | 3.97 | 1.70 | 2.82 |  |  |  |  |  |  |
| 1-Hexyl-3-methylimidazolium (3β)-3-hydroxyours-12-en-28-oylate [16c] |  | 7 ± 1 | 39 ± 4 | 7 ± 1 | 81 ± 8 | 14 ± 1 | 16 ± 1 |  |  |  |  |  |  |  |  |  |
| C[n+]1ccn(CCOC(=O)[C@]23CCC(C)(C)CC2C2=CCC4[C@@]5(C)CC[C@H](O)C(C)(C)C5CC[C@@]4(C)[C@]2(C)CC3)c1 (stereo partly drawn) [9a, 1-(2-{[(3β)-3-Hydroxyolean-12-en-28-oyl]oxy}ethyl)-3-methylimidazolium Bromide] | 5.07 |  |  |  |  |  |  | 1.72 | 2.79 | 1.96 | 24 ± 2 | 132 ± 11 | 37 ± 2 | 259 ± 24 | 69 ± 4 | 78 ± 4 |
| C[n+]1ccn(CCCCOC(=O)[C@]23CCC(C)(C)CC2C2=CCC4[C@@]5(C)CC[C@H](O)C(C)(C)C5CC[C@@]4(C)[C@]2(C)CC3)c1 (stereo partly drawn) [9b, 1-(4-{[(3β)-3-Hydroxyolean-12-en-28-oyl]oxy}butyl)-3-methylimidazolium bromide] |  |  |  |  |  |  |  |  |  |  | 46 ± 4 | 257 ± 24 | 29 ± 2 | 449 ± 41 | 135 ± 7 | 149 ± 7 |
| C[n+]1ccn(CCCCCCOC(=O)[C@]23CCC(C)(C)CC2C2=CCC4[C@@]5(C)CC[C@H](O)C(C)(C)C5CC[C@@]4(C)[C@]2(C)CC3)c1 (stereo partly drawn) [9c, 1-(6-{[(3β)-3-Hydroxyolean-12-en-28-oyl]oxy}hexyl)-3-methylimidazolium bromide] |  | 31 ± 3 | 234 ± 21 | 26 ± 1 | 318 ± 29 | 119 ± 5 | 133 ± 6 |  |  |  |  |  |  |  |  |  |
| C[C@@H]1CC[C@]2(C(=O)OCCn3cc[n+](C)c3)CC[C@]3(C)C(=CCC4[C@@]5(C)CC[C@H](O)C(C)(C)C5CC[C@]43C)C2[C@H]1C (stereo partly drawn) [10a, 1-(2-{[(3β)-3-Hydroxyurs-12-en-28-oyl]oxy}ethyl)-3-methylimidazolium bromide] | 11.01 |  |  |  |  |  |  | 10.43 | 5.01 | 0.71 | 8 ± 1 | 59 ± 5 | 17 ± 1 | 91 ± 9 | 27 ± 2 | 31 ± 2 |
| C[C@@H]1CC[C@]2(C(=O)OCCCCCCn3cc[n+](C)c3)CC[C@]3(C)C(=CCC4[C@@]5(C)CC[C@H](O)C(C)(C)C5CC[C@]43C)C2[C@H]1C (stereo partly shown) [10c] | 8.89 |  |  |  |  |  |  | 6.61 | 4.08 | 0.61 | 2 ± 1 | 11 ± 1 | 3 ± 1 | 24 ± 2 | 6 ± 1 | 7 ± 1 |
| C[n+]1ccn(CCCCCCOC(=O)[C@]23CCC(C)(C)CC2C2=CCC4[C@@]5(C)CC[C@H](O)C(C)(C)C5CC[C@@]4(C)[C@]2(C)CC3)c1 (stereo partly drawn) [13a, 1-(6-{[(3β)-3-Hydroxyolean-12-en-28-oyl]oxy}hexyl)-3-methylimidazolium Tetrafluoroborate] |  | 2 ± 1 | 18 ± 2 | 3 ± 1 | 24 ± 2 | 5 ± 1 | 6 ± 1 |  |  |  |  |  |  |  |  |  |
| C[C@H](O)C(=O)[O-].C[n+]1ccn(CCCCCCOC(=O)[C@]23CCC(C)(C)CC2C2=CCC4[C@@]5(C)CC[C@H](O)C(C)(C)C5CC[C@@]4(C)[C@]2(C)CC3)c1 (stereo partly drawn) [13g, 1-(6-{[(3β)-3-Hydroxyolean-12-en-28-oyl]oxy}hexyl)-3-methylimidazolium L-lactate] | 97.4 | 2 ± 1 | 13 ± 1 | 7 ± 1 | 26 ± 2 | 13 ± 1 | 14 ± 1 |  |  |  |  |  |  |  |  |  |
| CC1(C)CCC2(C(=O)[O-])CCC3(C)C(=CCC4C5(C)CCC(O)C(C)(C)C5CCC43C)C2C1.CC[n+]1ccn(C)c1 (stereo not drawn) [15a, 1-Ethyl-3-methylimidazolium (3β)-3-hydroxyolean-12-en-28-oylate] |  | 34 ± 3 | 162 ± 12 | 47 ± 3 | 359 ± 31 | 79 ± 5 | 88 ± 5 |  |  |  |  |  |  |  |  |  |
| CCn1cc[n+](C)c1.C[C@H]1[C@H](C)CC[C@]2(C(=O)[O-])CC[C@]3(C)C(=CC[C@@H]4[C@@]5(C)CC[C@H](O)C(C)(C)[C@@H]5CC[C@]43C)[C@H]12 [16a, 1-Ethyl-3-methylimidazolium (3β)-3-hydroxyours-12-en-28-oylate] |  | 18 ± 2 | 88 ± 7 | 33 ± 2 | 178 ± 18 | 34 ± 2 | 36 ± 2 |  |  |  |  |  |  |  |  |  |
